Assay results as given in patent EP2272817A1, “PAI-1 INHIBITOR” (Institute of Medicinal Molecular Design, Inc., priority 2008, dated 2009).
Like-named read-outs stand apart in the source and are kept apart here.

Key:
recombinant human PAI-1 [1] = target: T1, recombinant human PAI-1 (Homo sapiens, UniProt P05121); experiment: biochemical
recombinant rat PAI-1 = target: T2, recombinant rat PAI-1 (Rattus norvegicus, UniProt P20961); experiment: biochemical; conditions: read-out: Inhibition Rate of PAI-1 Activity (%)
T2 sequence (P20961 24-402): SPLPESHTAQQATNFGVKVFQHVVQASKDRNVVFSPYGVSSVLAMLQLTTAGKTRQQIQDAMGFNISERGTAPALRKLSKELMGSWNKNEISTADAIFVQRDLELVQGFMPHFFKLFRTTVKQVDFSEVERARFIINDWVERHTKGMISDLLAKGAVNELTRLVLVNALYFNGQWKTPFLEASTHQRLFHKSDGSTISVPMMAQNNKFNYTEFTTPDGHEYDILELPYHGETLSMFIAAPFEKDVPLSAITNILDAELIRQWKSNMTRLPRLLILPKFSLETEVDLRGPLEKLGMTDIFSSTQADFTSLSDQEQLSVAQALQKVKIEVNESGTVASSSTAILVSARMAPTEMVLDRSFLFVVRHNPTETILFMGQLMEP

recombinant human PAI-1 [2] = target: T1, recombinant human PAI-1; experiment: Test Example 2: Human PAI-1 Inhibitory Activity (pH 7.4 HEPES buffer, 10 minutes incubation with two-chain tPA); assay type: biochemical; parameters: purchased Molecular Innovations, Inc; conditions: read-out: Inhibition Rate of PAI-1 Activity (%)
Description: 0.1 M HEPES, 0.1 M NaCl. 1 mM EDTA. 0.1 % Polyethylene glycol 8,000 (Hampton Research Corporation),
2 mM Dimethyldecylphoshine oxide [Apo-10] (Fluka Corporation)

[3] = read-out: Inhibition Rate of PAI-1 Activity (%), Compound Concentration 5µM
[4] = read-out: Inhibition Rate of PAI-1 Activity (%), Compound Concentration 10µM
[5] = read-out: Inhibition Rate of PAI-1 Activity (%), Compound Concentration 25µM
[6] = read-out: Inhibition Rate of PAI-1 Activity (%)

T1 sequence (P05121 24-402): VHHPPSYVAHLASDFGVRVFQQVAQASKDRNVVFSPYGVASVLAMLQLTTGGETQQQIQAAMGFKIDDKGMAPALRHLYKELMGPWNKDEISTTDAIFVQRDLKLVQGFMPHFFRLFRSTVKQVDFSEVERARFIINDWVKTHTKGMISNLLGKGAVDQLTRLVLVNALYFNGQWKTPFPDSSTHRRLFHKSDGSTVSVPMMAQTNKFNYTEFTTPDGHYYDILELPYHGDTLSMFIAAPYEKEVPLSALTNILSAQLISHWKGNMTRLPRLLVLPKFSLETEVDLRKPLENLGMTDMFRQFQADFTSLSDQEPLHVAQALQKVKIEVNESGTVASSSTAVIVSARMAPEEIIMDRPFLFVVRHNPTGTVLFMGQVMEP

Compound | inhibition at 5 µM (recombinant human PAI-1 [1]; [6]) [%] | inhibition at 10 µM (recombinant human PAI-1 [1]; [6]) [%] | inhibition at 25 µM (recombinant human PAI-1 [1]; [6]) [%] | inhibition at 5 µM (recombinant human PAI-1 [1]; [3]) [%] | inhibition at 10 µM (recombinant human PAI-1 [1]; [4]) [%] | inhibition at 25 µM (recombinant human PAI-1 [1]; [5]) [%] | inhibition at 0.3 µM (recombinant rat PAI-1) [%] | inhibition at 1 µM (recombinant rat PAI-1) [%] | inhibition at 3 µM (recombinant rat PAI-1) [%] | inhibition at 10 µM (recombinant rat PAI-1) [%] | inhibition at 0.1 µM (recombinant human PAI-1 [2]) [%] | inhibition at 0.3 µM (recombinant human PAI-1 [2]) [%] | inhibition at 1 µM (recombinant human PAI-1 [2]) [%] | inhibition at 3 µM (recombinant human PAI-1 [2]) [%]
CC(C)(C)c1ccc(COc2cccc(Oc3ccc(OC(F)(F)F)cc3)c2CCC(=O)O)cc1 [Compound 86] |  |  |  | 47 | 80 | 98 | 0 | 12 | 34 | 69 | 0 | 0 | 22 | 87
CC(C)(C)c1ccc(CN(C(=O)C(=O)O)c2ccc(OCc3ccccc3)c(-c3ccc(OC(F)(F)F)cc3)c2)cc1 [Compound 212] | 78 | 95 |  |  |  |  | 8 | 40 | 73 | 67 | 5 | 15 | 64 | 98
CN(C)c1ccc(N(Cc2ccc(C(C)(C)C)cc2)C(=O)C(=O)O)cc1-c1ccc(OC(F)(F)F)cc1 [Compound 214] | 87 | 93 |  |  |  |  | 0 | 8 | 77 | 97 | 4 | 2 | 40 | 96
O=C(O)CCc1c(Oc2ccc(OC(F)(F)F)cc2)cccc1Oc1ccc(OC(F)(F)F)cc1 [Compound 98] |  |  |  | 57 | 84 | 98 | 0 | 10 | 39 | 95 | 0 | 2 | 25 | 84
CC(C)(C)c1ccc(C(c2ccccc2)N(C(=O)C(=O)O)c2ccc(-c3ccc(OC(F)(F)F)cc3)cc2)cc1 (stereo not shown) [Compound 222] |  |  |  | 74 | 91 |  | 3 | 32 | 91 |  | 0 | 3 | 45 | > 99
CC(C)(C)c1ccc(Oc2cccc(-c3ccc(OC(F)(F)F)cc3)c2OCC(=O)O)cc1 [Compound 113] |  |  |  | 58 | 85 | 97 | 0 | 9 | 33 | 99 | 0 | 6 | 26 | 73
CCN(CC)c1ccc(N(CCCc2ccccc2)C(=O)C(=O)O)c(-c2ccc(OC(F)(F)F)cc2)c1 [Compound 238] |  |  |  | 76 | 95 | 93 | 0 | 8 | 46 | 98 | 0 | 0 | 21 | 87
CC(C)(Oc1c(Oc2ccc(C(C)(C)C)cc2)cccc1-c1ccc(OC(F)(F)F)cc1)C(=O)O [Compound 251] |  |  |  | 62 | 63 |  |  |  |  |  | 0 | 11 | 34 | 83
CC(C)(C)c1ccc(COc2ccc(-c3ccc(OC(F)(F)F)cc3)cc2N(Cc2ccccc2)C(=O)C(=O)O)cc1 [Compound 179] |  |  |  | 64 | 91 |  | 7 | 38 | > 99 | > 99 | 1 | 19 | 68 | > 99
CCCCOc1ccc(N(Cc2ccc(C(C)(C)C)cc2)C(=O)C(=O)O)cc1-c1ccc(OC(F)(F)F)cc1 [Compound 193] |  |  |  | 81 | 89 |  | 2 | 26 | 81 | 70 | 2 | 5 | 34 | > 99
CC(C)(C)c1ccc(COc2c(CCC(=O)O)cccc2-c2ccc(OC(F)(F)F)cc2)cc1 [Compound 88] | 42 | 83 | 97 |  |  |  | 0 | 0 | 51 | 83 | 0 | 5 | 25 | 97
CCC(CC)Oc1ccc(N(CCCc2ccccc2)C(=O)C(=O)O)cc1-c1ccc(OC(F)(F)F)cc1 [Compound 230] |  |  |  | 75 | 95 | 92 | 0 | 13 | 83 | 94 | 0 | 8 | 27 | 96
CC(C)(C)c1ccc(COc2ccc(Oc3ccc(OC(F)(F)F)cc3)cc2CCC(=O)O)cc1 [Compound 96] |  |  |  | 36 | 75 | 99 | 3 | 14 | 49 | 96 | 6 | 7 | 26 | 96
CC(C)(C)c1ccc(CN(C(=O)CCC(=O)O)c2ccc(-c3ccc(OC(F)(F)F)cc3)cc2)cc1 [Compound 609] | 38 | 69 | > 99 |  |  |  |  |  |  |  |  |  |  | 
COc1ccc(CN(C(=O)C(=O)O)c2ccc(-c3ccc(OC(F)(F)F)cc3)cc2)cc1 [Compound 131] |  | 10 | 34 |  |  |  |  |  |  |  |  |  |  | 
Cc1cc(-c2ccc(OC(F)(F)F)cc2)cc(CCC(=O)O)c1OCc1ccc(C(C)(C)C)cc1 [Compound 84] | 28 | 62 | 95 |  |  |  |  |  |  |  |  |  |  | 
CC(C)(C)c1ccc(-c2ccc(N(Cc3ccccc3)C(=O)C(=O)O)cc2)cc1 [Compound 156] | 10 | 25 | 67 |  |  |  |  |  |  |  |  |  |  | 
CC(C)(C)c1ccc(Oc2cc(-c3ccc(OC(F)(F)F)cc3)ccc2OC(F)C(=O)O)cc1 (stereo not shown) [Compound 119] | 75 | 93 | 99 |  |  |  |  |  |  |  |  |  |  | 
CC(C)c1ccc(Oc2ccc(/C=C/C(=O)O)c(Oc3ccc(C(C)C)cc3)c2)cc1 [Compound 72] | 32 | 72 | 98 |  |  |  |  |  |  |  |  |  |  | 
CC(C)(C)c1ccc(Oc2cc(-c3ccc(OC(F)(F)F)cc3)ccc2OC(F)(F)C(=O)O)cc1 [Compound 120] | 59 | 87 | 98 |  |  |  |  |  |  |  |  |  |  | 
O=C(O)CCc1cc(-c2ccc(OC(F)(F)F)cc2)ccc1OCCCCCc1ccccc1 [Compound 104] | 47 | 77 | 96 |  |  |  |  |  |  |  |  |  |  | 

Further lines, with some results ahead:

inhibition at 5 µM (recombinant human PAI-1 [1]; [6]) [%] | inhibition at 10 µM (recombinant human PAI-1 [1]; [6]) [%] | inhibition at 25 µM (recombinant human PAI-1 [1]; [6]) [%] | Compound | inhibition at 5 µM (recombinant human PAI-1 [1]; [3]) [%] | inhibition at 10 µM (recombinant human PAI-1 [1]; [4]) [%] | inhibition at 25 µM (recombinant human PAI-1 [1]; [5]) [%] | inhibition at 0.3 µM (recombinant rat PAI-1) [%] | inhibition at 1 µM (recombinant rat PAI-1) [%] | inhibition at 3 µM (recombinant rat PAI-1) [%] | inhibition at 10 µM (recombinant rat PAI-1) [%] | inhibition at 0.1 µM (recombinant human PAI-1 [2]) [%] | inhibition at 0.3 µM (recombinant human PAI-1 [2]) [%] | inhibition at 1 µM (recombinant human PAI-1 [2]) [%] | inhibition at 3 µM (recombinant human PAI-1 [2]) [%]
18 | 35 | 64 | CC(C)(C)c1ccc(CN(C(=O)C(=O)O)c2ccc(-c3ccc(OC(F)(F)F)cc3)c(CCC(=O)O)c2)cc1 [Compound 196] |  |  |  |  |  |  |  |  |  |  | 
 | 5 | 52 | Cc1ccc(-c2ccc(N(Cc3ccc(C(C)(C)C)cc3)C(=O)C(=O)O)cc2)cc1 [Compound 141] |  |  |  |  |  |  |  |  |  |  | 
42 | 77 | 97 | CC(C)(C)c1ccc(CN(C(=O)C(=O)O)c2ccc(Nc3ccc(OC(F)(F)F)cc3)cc2)cc1 [Compound 626] |  |  |  |  |  |  |  |  |  |  | 
59 | 86 | 85 | Cc1cc(N(Cc2ccc(C(C)(C)C)cc2)C(=O)C(=O)O)ccc1-c1ccc(OC(F)(F)F)cc1 [Compound 184] |  |  |  |  |  |  |  |  |  |  | 
33 | 58 | 86 | CC(C)(C)c1ccc(CN(C(=O)C(=O)O)c2ccc(N3CCCCC3=O)c(-c3ccc(OC(F)(F)F)cc3)c2)cc1 [Compound 219] |  |  |  |  |  |  |  |  |  |  | 
48 | 85 | 97 | CC(C)(C)c1ccc(COc2ccc(-c3ccc(OC(F)(F)F)cc3)cc2COCC(=O)O)cc1 [Compound 107] |  |  |  |  |  |  |  |  |  |  | 
29 | 53 | 86 | O=C(O)C(=O)N(CCCc1ccccc1)c1ccc(-c2ccc(OC(F)(F)F)cc2)cc1 [Compound 224] |  |  |  |  |  |  |  |  |  |  | 
25 | 63 | 97 | CC(C)(C)c1ccc(COc2c(Cl)cc(-c3ccc(OC(F)(F)F)cc3)cc2CCC(=O)O)cc1 [Compound 92] |  |  |  |  |  |  |  |  |  |  | 
75 | 88 | 84 | CC(C)(C)c1ccc(CN(C(=O)C(=O)O)c2ccc(N3CCOCC3)c(-c3ccc(OC(F)(F)F)cc3)c2)cc1 [Compound 216] |  |  |  |  |  |  |  |  |  |  | 
